Legend:
Vero-E6 cells = settings: African green monkey
in vitro [1] = settings: African green monkey
in vitro [2] = settings: human

O=c1[nH]c2ccccc2n1CCCN1CCC(n2c(=O)[nH]c3cc(Cl)ccc32)CC1 [Domperidone, domperidone]
HIGHEST NONTOXIC CONCENTRATION (MTT) (Vero-E6 cells): 12.5 | CC50 (in vitro [1]): 25 µM | CC50 at 72 h (in vitro [2]): 4 µM
